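How tested: cells in 96-well plates exposed to compound for 48 hours at five concentrations. Abbreviation: GI50, concentration required for 50% inhibition of growth.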 Calls of active or inactive are those of the source. No stated cut-off is given here; in the data, active = GI50 up to about 1.1 µM and inactive = higher.
How the values were obtained:
Assay in all cases: DTP human tumour cell line panel, 48 h
[1] = tested on: LOX IMVI
[2] = tested on: EKVX
[3] = tested on: Malme-3M
[4] = tested on: IGROV-1
[5] = tested on: SK-MEL-28
[6] = tested on: MDA-N
[7] = tested on: OVCAR-4
[8] = tested on: HCT-116
[9] = tested on: SNB-19
[10] = tested on: HL-60
[11] = tested on: NCI-H226
[12] = tested on: UO-31
[13] = tested on: RPMI-8226
[14] = tested on: T47D
[15] = tested on: U-251
[16] = tested on: SF-295
[17] = tested on: HOP-92
[18] = tested on: UACC-257
[19] = tested on: SW-620
[20] = tested on: MCF7
[21] = tested on: SN12C
[22] = tested on: HCT-15
[23] = tested on: OVCAR-5
[24] = tested on: A549
[25] = tested on: SK-MEL-2
[26] = tested on: CCRF-CEM
[27] = tested on: NCI-H23
[28] = tested on: HOP-62
[29] = tested on: SR
[30] = tested on: M14
[31] = tested on: PC-3
[32] = tested on: NCI/ADR-RES
[33] = tested on: SK-MEL-5
[34] = tested on: Hs-578T
[35] = tested on: RXF 393
[36] = tested on: 786-0
[37] = tested on: MOLT-4
[38] = tested on: BT-549
[39] = tested on: CAKI-1
[40] = tested on: MDA-MB-435
[41] = tested on: NCI-H522
[42] = tested on: SF-268
[43] = tested on: OVCAR-8
[44] = tested on: DU-145
[45] = tested on: MDA-MB-231
[46] = tested on: KM12
[47] = tested on: SK-OV-3
[48] = tested on: COLO 205
[49] = tested on: TK-10
[50] = tested on: ACHN
[51] = tested on: UACC-62
[52] = tested on: SNB-75
[53] = tested on: SF-539
[54] = tested on: OVCAR-3
[55] = tested on: A498
[56] = tested on: NCI-H460
[57] = tested on: HT-29
[58] = tested on: K562

In the case of N#C/C(=C(\O)C(=O)O)c1ccc(-c2cccc3ccccc23)cc1, the GI50 [1] is reported as > 100 µM (inactive), the GI50 [2] is reported as 59.4 µM (inactive) and the GI50 [3] is reported as > 100 µM (inactive). For the same compound, the GI50 [4] was > 100 µM (inactive), the GI50 [5] was > 100 µM (inactive) and the GI50 [6] was > 100 µM (inactive). The GI50 [7] was > 100 µM (inactive), the GI50 [8] was > 100 µM (inactive) and the GI50 [9] was > 100 µM (inactive). The GI50 [10] was 19.5 µM (inactive), the GI50 [11] was > 100 µM (inactive) and the GI50 [12] was > 100 µM (inactive). The GI50 [13] was 29 µM (inactive), the GI50 [14] was > 100 µM (inactive) and the GI50 [15] was > 100 µM (inactive). The GI50 [16] was > 100 µM (inactive), the GI50 [17] was > 100 µM (inactive) and the GI50 [18] was > 100 µM (inactive). The GI50 [19] was > 100 µM (inactive), the GI50 [20] was > 100 µM (inactive) and the GI50 [21] was > 100 µM (inactive). The GI50 [22] was > 100 µM, the GI50 [23] was > 100 µM (inactive) and the GI50 [24] was > 100 µM (inactive). The GI50 [25] was > 100 µM (inactive), the GI50 [26] was 14.1 µM (inactive) and the GI50 [27] was > 100 µM (inactive). The GI50 [28] was > 100 µM (inactive), the GI50 [29] was 3.11 µM (inactive) and the GI50 [30] was > 100 µM (inactive). For the same compound, the GI50 [31] was > 100 µM (inactive), the GI50 [32] was > 100 µM (inactive) and the GI50 [33] was > 100 µM (inactive). For the same compound, the GI50 [34] was > 100 µM (inactive), the GI50 [35] was > 100 µM (inactive) and the GI50 [36] was > 100 µM (inactive). For the same compound, the GI50 [37] was 1.51 µM (inactive), the GI50 [38] was > 100 µM (inactive) and the GI50 [39] was > 100 µM (inactive). The GI50 [40] was > 100 µM (inactive), the GI50 [41] was > 100 µM (inactive) and the GI50 [42] was > 100 µM (inactive). The GI50 [43] was > 100 µM (inactive), the GI50 [44] was > 100 µM (inactive) and the GI50 [45] was > 100 µM (inactive). The GI50 [46] was > 100 µM (inactive), the GI50 [47] was > 100 µM (inactive) and the GI50 [48] was > 100 µM (inactive). The GI50 [49] was > 100 µM (inactive), the GI50 [50] was > 100 µM (inactive) and the GI50 [51] was > 100 µM (inactive). For the same compound, the GI50 [52] was > 100 µM (inactive), the GI50 [53] was > 100 µM (inactive) and the GI50 [54] was > 100 µM (inactive). The GI50 [55] was > 100 µM (inactive), the GI50 [56] was > 100 µM (inactive) and the GI50 [57] was > 100 µM (inactive). For the same compound, the GI50 [58] was 2.65 µM (inactive).

For CC(=O)c1nc2ccccc2n1CC(=O)c1ccc(Cl)cc1, the GI50 [1] was 0.925 µM (active), the GI50 [2] was 38.2 µM (inactive) and the GI50 [3] was 3.19 µM (inactive). The GI50 [4] was 1.39 µM (inactive), the GI50 [5] was 8.83 µM (inactive) and the GI50 [6] was 1.93 µM (inactive). The GI50 [7] was 5.26 µM (inactive), the GI50 [8] was 2.01 µM (inactive) and the GI50 [9] was 7.4 µM (inactive). For the same compound, the GI50 [10] was 1.79 µM (inactive), the GI50 [11] was 12 µM (inactive) and the GI50 [12] was 9.25 µM (inactive). The GI50 [13] was 3.65 µM (inactive), the GI50 [14] was 2.45 µM (inactive) and the GI50 [15] was 2.99 µM (inactive). The GI50 [16] was 13.4 µM (inactive), the GI50 [17] was 1.03 µM (active) and the GI50 [18] was 5.68 µM (inactive). For the same compound, the GI50 [19] was 2.67 µM (inactive), the GI50 [20] was 3.73 µM (inactive) and the GI50 [21] was 5.69 µM (inactive). The GI50 [22] was 5.2 µM, the GI50 [24] was 3.17 µM (inactive) and the GI50 [25] was 14.7 µM (inactive). The GI50 [26] was 4.09 µM (inactive), the GI50 [27] was 7.64 µM (inactive) and the GI50 [28] was 5.85 µM (inactive). For the same compound, the GI50 [29] was 4.84 µM (inactive), the GI50 [30] was 2.92 µM (inactive) and the GI50 [31] was 5.45 µM (inactive). The GI50 [32] was 2.94 µM (inactive), the GI50 [34] was 17.2 µM (inactive) and the GI50 [35] was 17.6 µM (inactive). The GI50 [36] was 3.13 µM (inactive), the GI50 [37] was 4.05 µM (inactive) and the GI50 [38] was 3.55 µM (inactive). The GI50 [39] was 5.25 µM (inactive), the GI50 [40] was 2.09 µM (inactive) and the GI50 [41] was 2.79 µM (inactive). For the same compound, the GI50 [42] was 3.94 µM (inactive), the GI50 [43] was 2.4 µM (inactive) and the GI50 [44] was 13.4 µM (inactive). The GI50 [45] was 2.79 µM (inactive), the GI50 [46] was 3.02 µM (inactive) and the GI50 [47] was 28.1 µM (inactive). The GI50 [48] was 20.9 µM (inactive), the GI50 [49] was 61.2 µM (inactive) and the GI50 [51] was 2.02 µM (inactive). The GI50 [53] was 7.36 µM (inactive), the GI50 [54] was 4.37 µM (inactive) and the GI50 [55] was 54.3 µM (inactive). The GI50 [56] was 2.45 µM (inactive), the GI50 [57] was 12.1 µM (inactive) and the GI50 [58] was 1.52 µM (inactive).
